Laboratory results as given in patent US20110257206A1, “Combinations of Therapeutic Agents for Treating Cancer” (priority 2006, published 2011).

Legend:
[1] = tested on: A549; assay: Combination dose-matrix cell viability assay (CellTiter-Blue / alamar blue), synergy versus Loewe additivity, A549; assay type: cell-based; settings: combination with Epothilone B; A549 cells; 72 hours; volume between measured and Loewe additive response surfaces; positive = synergistic
Method: The following Examples illustrate the combinations with epothilone B that show a syngeristic effect. All combinations were tested in three (3) distinct cell lines as part of this collaboration: A549, a model of non-small cell lung carcinoma; SKOV-3, a model of ovarian cancer; and SKMEL-28, a model of malignant melanoma.
Cells were cultured in T-175 flasks in complete medium (RPMI-1640, 10% FBS, 1% Penn/Strep) at 37° C. and 5% CO2. Cells were removed from the flask by brief treatment with 0.25% trypsin. Trypsin was inactivated with media and cell count was adjusted appropriately. Cells were then seeded into 384-well microtiter plates (35 μL) at 1500 (A549) or 3,000 (SKOV-3, SKMEL-28) cells/well using a multi-drop 16-24 hours prior to compound addition for general screening. […]
A solution of 5% CellTiter-Blue (Promega) viability dye in complete medium was dispensed to assay plates using a multi-drop or 384-well pipettor. […] Plates were allowed to cool to room temperature for one hour before reading fluorescence intensity at 590 nm after excitation at 540 nm in a Wallac Victor-V plate reader.
The measure of effect was the inhibition of cell viability using an alamar blue viability assay relative to the untreated level (vehicle alone). For untreated and treated levels U and T, a fractional inhibition I=1−T/U was calculated. […]

[2] = tested on: SKMEL28; assay: Combination dose-matrix cell viability assay (CellTiter-Blue / alamar blue), synergy versus Loewe additivity, SKMEL-28; assay type: cell-based; settings: combination with Epothilone B; SKMEL28 cells; 72 hours; volume between measured and Loewe additive response surfaces; positive = synergistic
Description: The inhibition ranges from 0% at the untreated level to 100% when T=0.
This effectively calculates a volume between the measured and Loewe additive response surfaces, weighted towards high inhibition and corrected for varying dilution factors.

Compound	Synergy Score [1]	Synergy Score [2]
O=C1C(SCCO)=C(SCCO)C(=O)c2ccccc21 [1,4-Naphthalenedione, 2,3-bis[(2-hydroxyethyl)thio]-(9CI)]	1.233	
Nc1nc(Cl)nc2c1ncn2C1CC(O)C(CO)O1 (stereo not drawn) [5-(6-amino-2-chloro-purin-9-yl)-2-(hydroxymethyl)oxolan-3-ol]		0.999
Butanedinitrile, bis[amino[(2-aminophenyl)thio]methylene]- (9CI)	1.199	
